Laboratory results published in patent publication US11613552B2, “Pharmaceutical agents, compositions, and methods relating thereto” (Alltech, Inc., priority 2017, dated 2023).

What was measured:
[1] = Serum insulin, ALT and creatinine assays in Lepr^db/db mice; assay type: in vivo, mouse; conditions: 0.136 mg/kg ip daily
Method: Male Lepr^db/db mice at 38 days of age were intraperitoneally (ip) injected daily with physiological saline ([…]) containing 0.2% DMSO, and Compound #43 (0.136 mg per kilogram body weight, diluted in sterile physiological saline) for 52 days. Sera from 3-month-old wild-type (non-diabetic) C57 mice were also collected. After the treatments, these serum samples were collected and subjected to insulin, ALT and creatinine assays.
The serum levels of insulin, ALT and creatinine were determined using Themo-Fisher Scientific's Insulin Mouse ELISA kit (Cat #EMINS), Sigma's ALT Activity Assay kit (Cat #MAK052), and Abcam's Creatinine Assay kit (Cat #Ab65340) according to the manufacturer's protocol, respectively.

Lepr^db/db mice = assay: Acute treatment: blood glucose in Lepr^db/db mice; assay type: in vivo, mouse
Method: After overnight fasting, 8-10-week-old Lepr^db/db mice were intraperitoneally injected with physiological saline ([…]) containing 0.2% DMSO, or Compound #43 (0.0054, 0.054, 0.54, or 5.4 mg Compound #43 (the compound stock was diluted in sterile physiological saline) per kilogram of body weight. Following the injection of saline or compound, mice were returned to their cages with free access to water but not chow for 1, 2, 3, 5 and 8 hr. At each time point after injection, a small drop of blood was collected from the tail of each mouse for glucose assay.
Additional 6-week old Lepr^db/db mice under non-fasting conditions were intraperitoneally injected with physiological saline ([…]) containing 0.2% DMSO, or a single dose of Compound #43 (5.4 mg compound/kg body weight). After injection, animals were returned back to their cages with free access to water and chow. After 24 hr, a small drop of blood from the mouse tail was collected for glucose assay.
After treatment with physiological saline or compounds or after the injection of a bolus of glucose, a small drop of blood from each mouse was collected by snipping the mouse tail tip. Blood glucose levels were determined using a Glucometer with a maximum capability for glucose measurement of 600 mg/dL.

Pdk1/Akt/Foxo1 = assay: Western blot of Pdk1/Akt/Foxo1 signaling in livers of Lepr^db/db mice; assay type: in vivo, mouse; conditions: 25 μg selenium/kg ip daily, 52 days (FIG. 12)
Method: Male Lepr^db/db mice (C57BL/6J strain, purchased from The Jackson Laboratory) at postnatal day 38 were intraperitoneally injected daily with physiological saline ([…]) containing 0.2% DMSO, Compound #43 (25 μg selenium or sulfur equivalent of each compound per kilogram body weight, diluted in sterile physiological saline) for 52 days. After the treatment, livers were collected and stored at −80° C.
Frozen liver tissues were minced in sterile ice-old PBS containing complete proteinase and phosphatase inhibitors (Thermo-Fisher Scientific, Waltham, Mass.) and subjected to homogenization using a tissue homogenizer (Thermo-Fisher Scientific, Waltham, Mass.). These tissue homogenates were diluted in Themo-Fisher's premade RIPA buffer (1 part homogenate/2 part of RIPA buffer) containing complete proteinase/phosphatase inhibitors to extract the proteins. Proteins in the homogenates were extracted in RIPA buffer at 4° C. overnight. These overnight-extracted protein lysates were centrifuged at 12000×g for 30 min at 4° C., and the protein levels in the supernatant of these tissue lysates were determined using the Pierce Micro-BCA protein assay kit (Thermo Scientific-Piece Biotechnology, Rockford, Ill.) according to the manufacturer's protocol.
One hundred micrograms of liver tissue proteins or five micrograms of total proteins from control- and compound(s)-treated HepG2 or AML-12 cells were subjected to SDS-PAGE gel separation and then transferred to PVDF membranes, as described previously (Reddy et al. 2008 Science). Membranes were blocked in a phosphate-buffered saline (PBS) containing 5% (w/v) of bovine serum albumin (Sigma, St. Louis, Mo.) and incubated with specific primary antibodies followed by the incubation with HRP-conjugated anti-mouse or anti-rabbit secondary antibodies (1:5000 dilution, Cell Signaling Inc.). All primary antibodies except Gapdh (Li-COR, Lincoln, Nebr.) were purchased from Cell Signaling Inc. Positive signals on the membrane blots were detected using the Amersham's enhanced chemiluminescence Western Blotting Prime Detection reagents (GE Healthcare Lifescience, Pittsburgh, Pa.). Images of these luminescence signals on the membrane blots were captured using the LI-COR Odyssey Fc Image system (Lincoln, Nebr.). The same membrane blot was stripped and re-blotted with another antibody as described in the GE WB ECL-prime-detection protocol (GE healthcare Lifescience, Pittsburgh, Pa.). Protein band densities in the Western blots were determined using the NIH ImageJ software and then normalized by Gapdh or Actb/ACTB level in each sample. Data are presented as mean±SEM of three samples per each group.

H4IIE cells = assay: Cell viability (CellTiter96 AQueous One) in H4IIE cells; assay type: cell-based, rat; conditions: tested doses
Method: After the above treatments, 50 μl of culture media were collected, and subjected to glucose analysis using Molecular Probes Amplex Red glucose assay kit (Cat #A22189) according to the manufacturer's protocol. Cell numbers or viability in the culture plate after the above compound treatments were determined using Promega's CellTiter96® AQueous One Solution Cell Proliferation Assay kits, according to the manufacturer's protocol and instructions. In brief, after removing 50 μl of culture media for glucose assay, cells were incubated with AQueous One solution (25 μl stock solution and 50 μl prewarmed PBS/per well) at 37° C. for 1 hour, and the absorbance of OD490 nm in each sample was determined by the Bio-Tek microplate reader. Cell viability in culture wells were determined by the subtraction of OD490 nm in cultured cells with the OD490 nm in plain culture media (without seeding of cells). Glucose production in the culture cells were obtained by normalizing the glucose concentration in culture media by cell viability in each well. At least 3 samples per each treatment were examined for the above analysis. Data are presented as Mean±SEM of those samples. Experiments were repeated at least twice.

With C[Se]C[C@H]1O[C@@H](n2cnc3c(N)ncnc32)C(OC(C)=O)C1OC(C)=O (some centres unmarked) [Compound #43, Adenosine, 5′-Se-methyl-5′-selino-, 2′,3′-diacetate] the “decrease of serum insulin levels” value ([1]; 52 days (FIG. 24A)) was “about 80%”, the “serum ALT levels” value ([1]; 52 days (FIG. 24B)) was “significant decrease of serum ALT levels” and the serum creatinine levels ([1]; 52 days (FIG. 24C)) was “no significant change in serum creatinine levels”. For the same compound, the “decrease of blood glucose levels” value (Lepr^db/db mice; 5.4 mg/kg single ip, 24 hr, 6-week-old mice, ad-libitum feeding (FIG. 7)) was “about 20%”, the “duration of effectiveness in lowering glucose output” value (Lepr^db/db mice; 5.4 mg/kg single ip, feeding conditions) was “at least 24 hr” and the “effect on blood glucose levels vs saline” value (Lepr^db/db mice; single ip 0.0054, 0.054, 0.54, 5.4 mg/kg, fasting, 1-8 hr (FIG. 6)) was “significant decrease of blood glucose levels”. The duration of activity (Lepr^db/db mice; single ip injection, fasting) was “at least 8 hours”, the “onset of action post-treatment” value (Lepr^db/db mice; single ip injection, fasting) was ≤ 1 h and the “time of peak activity in reducing blood glucose levels” value (Lepr^db/db mice; single ip injection, fasting conditions) was 2 to 5 h. For the same compound, the “pAkt (Threonine 308) protein level in liver” value (Pdk1/Akt/Foxo1) was “significantly elevated”, the “pFoxo1 (Serine 256) protein level in liver” value (Pdk1/Akt/Foxo1) was “significantly elevated” and the “pPdk1 protein level in liver” value (Pdk1/Akt/Foxo1) was “significantly elevated”. The “total Akt levels in liver” value (Pdk1/Akt/Foxo1) was “no significant change” and the “toxic effect on cell viability” value (H4IIE cells) was “No toxic effect”.
